# Reference: ChEMBL document CHEMBL1126767, “Three-dimensional quantitative structure-activity relationship of angiotesin-converting enzyme and thermolysin inhibitors. II. A comparison of CoMFA models incorporating molecular orbital fields and desolvation free energies based on active-analog and complementary-receptor-field alignment rules” (J Med Chem, 1993)
# Square brackets hold non-standard residues; d marks the D form. Peptide text beside a SMILES is read from it. ξ: configuration not given here. ξC = NC(CS)C(=O)O; Mpa = O=C(O)CCS
# Target: Angiotensin-converting enzyme (Homo sapiens, UniProt P12821)
# Assay: Inhibitory activity against angiotensin converting enzyme (ACE)
# Type: functional
row,SMILES,IC50
1,O=C(O)[C@@H]1CCCN1C(=O)CP(=O)(O)O,8.32 µM
2,O=C(O)[C@@H]1CC2(CN1C(=O)CP(=O)(O)CCCCc1ccccc1)SCCS2,0.00398 µM
3,NCCCC[C@H](OP(=O)(O)CCCCc1ccccc1)C(=O)N1C[C@H](c2ccccc2)C[C@H]1C(=O)O,0.339 µM
4,NCCCC[C@H](OP(=O)(O)CCCCc1ccccc1)C(=O)N(CC(=O)O)c1ccccc1,0.00107 µM
5,NCCCC[C@H](OP(=O)(O)CCCCc1ccccc1)C(=O)N1c2ccccc2C[C@H]1C(=O)O,0.000295 µM
6,NCCCC[C@H](OP(=O)(O)CCCCc1ccccc1)C(=O)N1C[C@@H](Cc2ccccc2)C[C@H]1C(=O)O,0.000891 µM
7,NCCCC[C@H](OP(=O)(O)CCCCc1ccccc1)C(=O)N(CC(=O)O)C1CCCCC1,0.000295 µM
8,NCCCC[C@H](OP(=O)(O)CCCCc1ccccc1)C(=O)N1C[C@@H](C2CCCCC2)C[C@H]1C(=O)O,0.00049 µM
9,NCCCC[C@H](OP(=O)(O)CCCCc1ccccc1)C(=O)N1C[C@H](C2CCCCC2)C[C@H]1C(=O)O,0.00324 µM
10,CS[C@@H]1C[C@@H](C(=O)O)N(C(=O)[C@H](CCCCN)OP(=O)(O)CCCCc2ccccc2)C1,0.000525 µM
11,O=C(O)[C@H]1CCCN1C(=O)CCS,1820 µM
12,O=C(O)CCC(=O)NCC(=O)O,2000 µM
13,O=C(O)[C@@H]1C=CCN1C(=O)CCS,0.646 µM
14,O=C(O)CCc1cc(O)c2n(c1=O)[C@H](C(=O)O)CC2,0.457 µM
15,NCCC[C@H](NC(CCc1ccccc1)C(=O)O)C(=O)N1CCC[C@H]1C(=O)O (stereo partly specified),0.00219 µM
16,O=C(CCS)N[C@@H](CS)C(=O)O,67.6 µM
17,O=C(O)[C@@H]1CCCN1CCCS,240 µM
18,C[C@H](NP(=O)(O)CCc1ccccc1)C(=O)N1CCC[C@H]1C(=O)O,0.00708 µM
19,CC(C)C[C@H](NC(=O)CCC(=O)O)C(=O)O,617 µM
20,O=C(NC(CCc1ccccc1)P(=O)(O)CC(=O)N1CCC[C@H]1C(=O)O)c1ccccc1 (stereo partly specified),0.0724 µM
21,N[C@@H](Cc1ccccc1)C(=O)N[C@H](CCC(=O)N1[C@H](C(=O)O)C[C@@H]2CCCC[C@@H]21)C(=O)O,0.219 µM
22,O=C(O)CCC(=O)N1CCC[C@H]1C(=O)O,33.1 µM

row,SMILES,IC50
1,NCCCCC(NC(=O)OCc1ccccc1)C(=O)N[C@H](CCC(=O)N1c2ccccc2C[C@H]1C(=O)O)C(=O)O (stereo partly specified),2.51 µM
2,O=C(O)CCn1c(=O)n2n(c1=O)[C@H](C(=O)O)C=CC2,0.001 µM
3,CC(C)[C@H](NC(=O)CCC(=O)O)C(=O)O,1100 µM
4,O=C(NC(Cc1ccccc1)CP(=O)(O)CC(=O)N1CCC[C@H]1C(=O)O)c1ccccc1 (stereo partly specified),0.01 µM
5,NC(Cc1ccccc1)C(=O)N[C@H](CCC(=O)N1[C@H](C(=O)O)C[C@@H]2CCCC[C@@H]21)C(=O)O (stereo partly specified),0.1 µM
6,O=C(CS)N[C@@H](Cc1c[nH]cn1)C(=O)O,257 µM
7,O=C(CCS)N[C@@H](Cc1cnc[nH]1)C(=O)O,229 µM
8,C[C@H](NC(CCCNC(=O)OCc1ccccc1)C(=O)O)C(=O)N1CCC[C@H]1C(=O)O (stereo partly specified),0.00288 µM
9,CC(C)(C)OC(=O)[C@@H]1CCCN1C(=O)CCS,38.9 µM
10,C[C@@H]1CCCC(NC(CCc2ccccc2)C(=O)O)C(=O)N1CC(=O)O (stereo partly specified),0.00302 µM
11,CCN(C[C@H](CCc1ccccc1)C(=O)O)C(=O)N1Cc2ccccc2C[C@H]1C(=O)O,0.00646 µM
12,CC(C(=O)O)C1CCCCC(CS)C1=O (stereo unspecified),0.0525 µM
13,O=C(CCS)N[C@@H](Cc1ccccc1)C(=O)O,0.427 µM
14,O=C(CS)N[C@@H](Cc1c[nH]c2ccccc12)C(=O)O,0.759 µM
15,C[C@H](NC(C(=O)O)C1CCCN1C(=O)c1ccccc1)C(=O)N1CCC[C@H]1C(=O)O (stereo partly specified),0.00288 µM
16,O=C(O)[C@@H]1CCCN1C(=O)CCP(=O)(O)O,47.9 µM
17,NCCCC[C@H](OP(=O)(O)CCCCc1ccccc1)C(=O)N1C[C@H](O)C[C@H]1C(=O)O,0.000871 µM
18,NCCCC[C@H](OP(=O)(O)CCCCc1ccccc1)C(=O)N1CC2(C[C@H]1C(=O)O)SCCS2,0.000631 µM
19,NCCCC[C@H](OP(=O)(O)CCCCc1ccccc1)C(=O)N1C[C@@H](Sc2ccccc2)C[C@H]1C(=O)O,0.000525 µM
20,NCCCC[C@H](OP(=O)(O)CCCCc1ccccc1)C(=O)N1C[C@@H](c2ccccc2)C[C@H]1C(=O)O,0.000132 µM
21,NCCCC[C@H](OP(=O)(O)CCCCc1ccccc1)C(=O)N1C[C@@H](O)C[C@H]1C(=O)O,0.0158 µM
22,NCCCC[C@H](OP(=O)(O)CCCCc1ccccc1)C(=O)N(CC(=O)O)c1ccc2c(c1)OCO2,0.000115 µM

row,SMILES,IC50
1,COc1ccc(N(CC(=O)O)C(=O)[C@H](CCCCN)OP(=O)(O)CCCCc2ccccc2)cc1OC,0.000288 µM
2,C[C@H](CC(CCc1ccccc1)C(=O)O)C(=O)N1c2ccccc2C[C@H]1C(=O)O (stereo partly specified),0.00479 µM
3,NCCCCC(N)C(=O)N[C@H](CCC(=O)N1[C@H](C(=O)O)C[C@@H]2CCCC[C@@H]21)C(=O)O (stereo partly specified),0.012 µM
4,NCCCC[C@H](OP(=O)(O)CCCCc1ccccc1)C(=O)N1C[C@H](Sc2ccccc2)C[C@H]1C(=O)O,0.000776 µM
5,O=C(O)[C@@H]1CCCN1C(=O)C1CCCC1S (stereo partly specified),0.0646 µM
6,CS[C@H]1C[C@@H](C(=O)O)N(C(=O)[C@H](CCCCN)OP(=O)(O)CCCCc2ccccc2)C1,0.00191 µM
7,O=C(O)[C@@H]1CCC(=O)N1CCCS,646 µM
8,CSC1(SC)C[C@@H](C(=O)O)N(C(=O)[C@H](CCCCN)OP(=O)(O)CCCCc2ccccc2)C1,0.00257 µM
9,CC(C)(S)C(=O)N[C@@H](CC(=O)O)C(=O)O,3470 µM
10,C[C@H](NCC(=O)O)C(=O)N1CCC[C@H]1C(=O)O,2.4 µM
11,C[C@H](NC(=O)CCC(=O)O)C(=O)O,1350 µM
12,O=C(O)C(CCc1ccccc1)N[C@H]1CCN2CCC[C@@H](C(=O)O)N2C1=O (stereo partly specified),0.0562 µM
13,C[C@@H](NC(=O)C(S)Cc1ccccc1)C(=O)N1CCC[C@H]1C(=O)O (stereo partly specified),0.0501 µM
14,O=C(O)CNC(=O)CCS,2.82 µM
15,CN(CC(=O)O)C(=O)CCS,3.02 µM
16,C[C@H](NC(CCc1ccccc1)C(=O)O)C(=O)N(CC(=O)O)C1Cc2ccccc2C1 (stereo partly specified),0.0398 µM
17,C[C@H](NC(CCc1ccccc1)C(=O)O)C(=O)N1CC2CCCCC2[C@H]1C(=O)O (stereo partly specified),0.00219 µM
18,O=C(N[C@H](CCC(=O)N1[C@H](C(=O)O)C[C@@H]2CCCC[C@@H]21)C(=O)O)C1CCCN1C(=O)OCc1ccccc1 (stereo partly specified),0.0151 µM
19,COP(=O)(O)C(CCc1ccccc1)N[C@@H](C)C(=O)N1CCC[C@H]1C(=O)O (stereo partly specified),0.437 µM
20,O=C(O)[C@@H]1CCCN1C(=O)C1CCC1S (stereo partly specified),0.049 µM
21,C[C@H](NC(=O)CCS)C(=O)O,0.851 µM
22,C[C@H](NP(=O)(O)O)C(=O)N1CCC[C@H]1C(=O)O,0.776 µM

row,SMILES,IC50
1,O=C(NC(Cc1ccccc1)C(=O)N[C@H](CCC(=O)N1c2ccccc2C[C@H]1C(=O)O)C(=O)O)OCc1ccccc1 (stereo partly specified),0.000251 µM
2,C[C@H](NC(CCc1ccc(O)cc1)C(=O)O)C(=O)N1CCC[C@H]1C(=O)O (stereo partly specified),0.00282 µM
3,C[C@H](NC(CCC(=O)Nc1ccccc1)C(=O)O)C(=O)N1CCC[C@H]1C(=O)O (stereo partly specified),0.00525 µM
4,C[C@H](CCC(=O)O)C(=O)N1CCC[C@H]1C(=O)O,4.9 µM
5,C[C@H](CC(=O)O)C(=O)N1CCC[C@H]1C(=O)O,10.2 µM
6,CC(C)[C@H](NC(=O)CCS)C(=O)O,1.58 µM
7,C[C@@]1(CCS)C(=O)N2CC=C[C@@H](C(=O)O)N2C1=O,0.1 µM
8,CC[C@@H](C)[C@H](C)C(=O)N[C@@H](Cc1ccccc1)C(=O)O,933 µM
9,O=C(O)CCCCCS,1100 µM
10,CCC(C)[C@H](NC(=O)CCC(=O)O)C(=O)O (stereo partly specified),1050 µM
11,C[C@H](NP(=O)(O)OCc1ccccc1)C(=O)N1CCC[C@H]1C(=O)O,0.0407 µM
12,O=C(O)[C@@H]1CCCN2C(=O)C[C@@H](CS)C(=O)N12,0.0708 µM
13,C[C@H](NC(CCN)C(=O)O)C(=O)N1CCC[C@H]1C(=O)O (stereo partly specified),0.324 µM
14,O=C(O)CCC(=O)N[C@@H](Cc1ccccc1)C(=O)O,550 µM
15,C[C@H](NCCCc1ccccc1)C(=O)N1CCC[C@H]1C(=O)O,5.75 µM
16,C[C@H](NC(CCc1ccccc1)C(N)=O)C(=O)N1CCC[C@H]1C(=O)O (stereo partly specified),25.7 µM
17,Cc1ccc(N(CC(=O)O)C(=O)C(C)N)cc1 (stereo unspecified),2.57 µM
18,O=C(O)C[C@H](NC(=O)CS)C(=O)O,77.6 µM
19,O=C(O)CCNC(=O)CCS,490 µM
20,O=C(CS)N[C@@H](CS)C(=O)O,19.1 µM
21,O=C(N[C@H](CCC(=O)N1CCC[C@H]1C(=O)O)C(=O)O)C1CCCN1C(=O)OCc1ccccc1 (stereo partly specified),2.51 µM
22,C[C@H](NC(CCc1ccccc1)P(=O)(O)O)C(=O)N1CCC[C@H]1C(=O)O (stereo partly specified),0.0513 µM

row,SMILES,IC50
1,CN(C(=O)CCS)[C@@H](Cc1ccccc1)C(=O)O,30.9 µM
2,C[C@H](NC(CCC(=O)Nc1ccc(I)cc1)C(=O)O)C(=O)N1CCC[C@H]1C(=O)O (stereo partly specified),0.000229 µM
3,O=C(CCS)OC(Cc1ccccc1)C(=O)O (stereo unspecified),0.708 µM
4,O=C(O)CCC(=O)CCS,2.4 µM
5,O=C(O)CN1C(=O)C(NC(CCc2ccccc2)C(=O)O)CCc2ccccc21 (stereo unspecified),0.0017 µM
6,O=C(O)[C@@H]1C=CCn2c(=O)n(CS)c(=O)n21,0.708 µM
7,CC(C)(S)C(=O)N[C@@H](Cc1c[nH]c2ccccc12)C(=O)O,38 µM
8,NCC(=O)N[C@@H](Cc1ccccc1)C(=O)O (H-Gly-Phe-OH),603 µM
9,CC[C@H](C)[C@H](N)C(=O)N1CCC[C@H]1C(=O)O (H-Ile-Pro-OH),129 µM
10,CC(C)[C@H](N)C(=O)N1CCC[C@H]1C(=O)O (H-Val-Pro-OH),417 µM
11,NC(CS)C(=O)N1CCC[C@H]1C(=O)O (stereo partly specified) (H-[ξC]-Pro-OH),0.0631 µM
12,C[C@H](NC(=O)CCS)C(=O)N1CCC[C@H]1C(=O)O ([Mpa]-Ala-Pro-OH),2.57 µM
13,CC(CS)C(=O)N[C@@H](Cc1c[nH]c2ccccc12)C(=O)O (stereo in doubt),33.1 µM
14,CC(CS)C(=O)N[C@@H](Cc1c[nH]c2ccccc12)C(=O)O (stereo in doubt; 30A),0.0347 µM
15,O=C(O)[C@@H]1CCCN1C(=O)CCS (stereo in doubt; 34),0.2 µM
16,C[C@@H](N)C(=O)N[C@@H](Cc1ccccc1)C(=O)O (stereo in doubt; 52),191 µM
17,C[C@@H](N)C(=O)N[C@@H](Cc1ccccc1)C(=O)O (stereo in doubt; 53),52.5 µM
18,O=C(O)[C@@H]1CCCN1C(=O)CCS (stereo in doubt; 56),17 µM
